Results from patent US9480750B2, “Preparation of antibody or an antibody fragment targeted immunoliposomes for systemic administration of therapeutic or diagnostic agents and uses thereof” (GEORGETOWN UNIVERSITY, priority 1999, dated 2016).
Counter-ions that a name gives are not always drawn. Like-named read-outs stand apart in the source and are kept apart here.

Experiments:
[1] = tested on: Panc I subcutaneous xenograft tumors; test: In vivo chemosensitization of pancreatic xenograft; parameters: species or system mice; conditions: GEMZAR alone, intraperitoneally
Method: To show the universality of this delivery system two different human xenograft mouse tumor models (pancreatic cancer and breast cancer) were employed. In the first (FIG. 10A) Panc I subcutaneous xenograft tumors were induced in female athymic nude (NCR nu/nu) mice. When the tumors were 100-200 mm^3 in size the animals were injected with the chemotherapeutic agent GEMZAR® (intraperitoneally) and with […]-2 prepared by the method of this invention (I.V.). […] In addition to the I.V. injections the complex described above also was intratumorally injected. One group of animals received GEMZAR® only and a second control group received GEMZAR® plus the complex carrying empty vector.

[2] = tested on: DU145 human prostate cancer cells; test: In vitro chemosensitization, XTT; type: cell-based
[3] = tested on: normal skin fibroblast cell line H500
[4] = tested on: normal human lung fibroblasts IMR-90; test: In vitro chemosensitization of normal cells, XTT; type: cell-based; conditions: 2.5 uM Sunitinib malate, FIG. 43A-C
Method: The above sensitization results with B16/F10 and MDA-MB-435 were dramatically different from the results with normal human lung fibroblasts IMR-90 under the same conditions. […] The ratio of single-chain antibody fragment to liposome in each complex was 1:30 (w:w). […] After 48 hours, XTT assays were performed to assess cell viability in response to treatments. Each point represents the mean of triplicate samples±standard deviation. […] UT=untransfected.

[5] = administered orally; cited from earlier work
[6] = TARCEVA plus gemcitabine; cited from earlier work
[7] = tested on: MDA-MB-435 human melanoma cells; test: In vitro chemosensitization, XTT; type: cell-based
[8] = cited from earlier work
cleaved caspase-3 = test: Western blot of cleaved caspase-3 from mice serum; type: in vivo, C57BL/6 mice; conditions: CDDP alone
Method: The blood collected from the retroorbital sinus of mice was centrifuged at 1,000 rpm for 10 minutes at room temperature after coagulation at room temperature for 1 hr. The serum was transferred to a new tube and centrifuged again at 10,000 g for 20 minutes. The supernatant serum was purified using a P-30 Micro-Bio-Spin Chromatography Column (BIORAD, Hercules, Calif.). Fifteen microliters of the fractions was loaded on a 4% to 12% gradient NuPAGE gel (Invitrogen Life Technologies, Carlsbad, Calif.) and run until the 10 kDa protein marker has run off the gel (approximately 1.5 to 2 hours). After electrophoresis, the proteins were transferred onto a Protran BA 85 nitrocellulose transfer membrane (Schleicher and Schuell, BioScience, Keene, N. H.). Finally, a Western blot analysis for cleaved caspase-3 was performed with cleaved caspase-3 (17 kD) antibody. To block nonspecific binding, the membrane was incubated at room temperature for 1 hour with 5% nonfat dry milk in 10 mM Tris-HCl buffer, pH 8.0, containing 150 mM NaCl and 0.05% Tween 20 (TBST). […] The protein was detected using goat antirabbit secondary antibody (Jackson ImmunoResearch Laboratories, West Grove, Pa.), ECL Western blotting detection reagent, and Hyperfilm ECL (Amersham, Piscataway, N.J.).

advanced NSCLC = conditions: previously-treated advanced NSCLC; cited from earlier work

Nc1ccn([C@@H]2O[C@H](CO)[C@@H](O)C2(F)F)c(=O)n1 [GEMZAR®, gemcitabine HCl]
tumor growth [1]: not able to significantly inhibit pancreatic tumor growth

CCN(CC)CCNC(=O)c1c(C)[nH]c(/C=C2\C(=O)Nc3ccc(F)cc32)c1C [Sunitinib malate]
sensitization to Mitoxantrone ([2]; 5 μM free Sunitinib malate): only minimal effect on sensitization
sensitization to Mitoxantrone, TAXOTERE or Gemcitabine ([3]; 2.5 or 5 uM Sunitinib malate, FIG. 42A-C): no significant increase in sensitization
sensitization to Mitoxantrone, TAXOTERE or Gemcitabine [4]: no significant increase in sensitization

C#Cc1cccc(Nc2ncnc3cc(OCCOC)c(OCCOC)cc23)c1 [Erlotinib, N-(3-ethynylphenyl)-6,7-bis(2-methoxyethoxy)-4-quinazolinamine]
half-lives [5]: ~36 h
Diarrhea [6]: 48%
Rash [6]: 69%
dose reductions due to rash and diarrhea, each [6]: two percent
study discontinuation due to rash and diarrhea [6]: up to one percent
sensitization to Mitoxantrone ([2]; 3.75 uM Erlotinib): does not sensitize the cells to Mitoxantrone
sensitization to Mitoxantrone ([2]; 7.5 uM Erlotinib): had no effect on the response to the chemotherapeutic agent
sensitization to Mitoxantrone, TAXOTERE or Gemcitabine ([3]; 7.5 uM Erlotinib, FIG. 36A-C): no significant increase in sensitization
sensitization to TAXOTERE ([7]; free Erlotinib): only minimal effect
incidence of ILD-like events ([8]; NSCLC single-agent trial): 0.8%
Grade 3/4 diarrhea ([8]; monotherapy 150 mg, NSCLC): 6%
Grade 3/4 rash ([8]; monotherapy 150 mg, NSCLC): 9%
patients discontinuing due to rash or diarrhea, each ([8]; monotherapy 150 mg, NSCLC): 1%

[NH2][Pt]([NH2])([Cl])[Cl] [CDDP, cisplatin]
cleaved caspase-3 in serum (cleaved caspase-3): only a weak band

Cc1ccc(NC(=O)c2ccc(CN3CCN(C)CC3)cc2)cc1Nc1nccc(-c2cccnc2)n1 [Imatinib Mesylate]
sensitization to TAXOTERE ([7]; 20 uM Imatinib Mesylate): does not sensitize the cells

COc1cc2ncnc(Nc3ccc(F)c(Cl)c3)c2cc1OCCCN1CCOCC1 [Geftinib, Gefitinib]
half-lives [5]: ~46 h
patients achieving tumor shrinkage or stabilization of their tumor (advanced NSCLC): Approximately 50%
sensitization to TAXOTERE ([7]; free Geftinib, 15 µM): did not sensitize the cells at all
